From US6492174B1, “Methods of initiating embryogenic cultures in plants” (Institute of Paper Science & Technology, priority 2000, dated 2002)
Read-outs that look alike come from different tables or passages of the source.

What was measured:
[1] = tested on: Loblolly pine megagametophytes
Procedure: As in Example 9, the explants in this experiment were megagametophytes, containing Stage 2-4 somatic embryos, excised from the open pollinated summer cones of four different genotypes of Loblolly pine. Megagametophytes were isolated as in Example 4 and put on initiation media #889 (Table 47). The experiment consisted of three replications per treatment, per cone collection. Replications consisted of ten explants in adjacent wells on a single well plate. Plates were wrapped in […] and incubated in the dark at 23-24° C.
Explants were cultured on solid media under atmospheres containing three levels of oxygen: normal air (21% oxygen), 30% oxygen and 50% oxygen. All oxygen treatments were applied at either normal atmospheric pressure or under an elevated pressure of 1.5 atmospheres.
After eight weeks, extrusion and initiation were scored, as described in Example 3.

loblolly pine = settings: silver nitrate at about 29-59 μM; cited from earlier work
[2] = genotype 5-1036, 30% Oxygen + Pressure
[3] = genotype 5-1036, 50% Oxygen + Pressure
[4] = genotype 11-1057, 30% Oxygen + Pressure
[5] = genotype 11-1057, 50% Oxygen + Pressure
[6] = genotype 18-120, 30% Oxygen + Pressure
[7] = genotype 18-120, 50% Oxygen + Pressure
[8] = genotype 18-1212, 30% Oxygen + Pressure
[9] = genotype 18-1212, 50% Oxygen + Pressure

Question: Which “% Megagametophytes Extruding” value ([1]; Total, 30% Oxygen) does the source give for `O=O` [Oxygen] here?
Answer: The value was 45.3%.

Question: And the “% Megagametophytes Initiating” value ([1]; Total, 30% Oxygen)?
Answer: Its value is 5.9%.

Question: And the “% Megagametophytes Extruding” value ([1]; Total, 30% Oxygen + Pressure)?
Answer: Its value is 53.2%.

Question: What about the “% Megagametophytes Initiating” value ([1]; Total, 30% Oxygen + Pressure) of the same compound?
Answer: The value was 7.6%.

Question: What about the “% Megagametophytes Extruding” value ([1]; Total, 50% Oxygen) of the same compound?
Answer: Its value is 49.8%.

Question: What about the “% Megagametophytes Initiating” value ([1]; Total, 50% Oxygen) of the same compound?
Answer: Its value is 11.1%.

Question: What about the “% Megagametophytes Extruding” value ([1]; Total, 50% Oxygen + Pressure) of the same compound?
Answer: The value was 56.9%.

Question: What about the “% Megagametophytes Initiating” value ([1]; Total, 50% Oxygen + Pressure) of the same compound?
Answer: The value was 8.6%.

Question: And the “% Megagametophytes Extruding” value ([1]; genotype 5-1036, 30% Oxygen)?
Answer: The value was 57.5 (3.8) %.

Question: And the “% Megagametophytes Initiating” value ([1]; genotype 5-1036, 30% Oxygen)?
Answer: The value was 3.3 (3.3) %.

Question: And the “% Megagametophytes Extruding” value [1, 2]?
Answer: Its value is 73.3 (8.8) %.

Question: And the “% Megagametophytes Initiating” value [1, 2]?
Answer: Its value is 13.3 (3.3) %.

Question: And the “% Megagametophytes Extruding” value ([1]; genotype 5-1036, 50% Oxygen)?
Answer: The value was 50.0 (10.0) %.

Question: And the “% Megagametophytes Initiating” value ([1]; genotype 5-1036, 50% Oxygen)?
Answer: The value was 20.0 (5.8) %.

Question: What about the “% Megagametophytes Extruding” value [1, 3] of the same compound?
Answer: Its value is 83.3 (3.3) %.

Question: And the “% Megagametophytes Initiating” value [1, 3]?
Answer: The value was 13.3 (3.3) %.

Question: And the “% Megagametophytes Extruding” value ([1]; genotype 11-1057, 30% Oxygen)?
Answer: The value was 30.0 (15.3) %.

Question: What about the “% Megagametophytes Initiating” value ([1]; genotype 11-1057, 30% Oxygen) of the same compound?
Answer: Its value is 10.0 (0.0) %.

Question: And the “% Megagametophytes Extruding” value [1, 4]?
Answer: Its value is 34.4 (16.1) %.

Question: And the “% Megagametophytes Initiating” value [1, 4]?
Answer: The value was 6.7 (67) %.

Question: And the “% Megagametophytes Extruding” value ([1]; genotype 11-1057, 50% Oxygen)?
Answer: The value was 53.3 (3.3) %.

Question: What about the “% Megagametophytes Initiating” value ([1]; genotype 11-1057, 50% Oxygen) of the same compound?
Answer: Its value is 13.0 (3.3) %.

Question: What about the “% Megagametophytes Extruding” value [1, 5] of the same compound?
Answer: The value was 43.3 (3.3) %.

Question: And the “% Megagametophytes Initiating” value [1, 5]?
Answer: The value was 10.0 (5.8) %.

Question: What about the “% Megagametophytes Extruding” value ([1]; genotype 18-120, 30% Oxygen) of the same compound?
Answer: The value was 33.3 (19.2) %.

Question: What about the “% Megagametophytes Initiating” value ([1]; genotype 18-120, 30% Oxygen) of the same compound?
Answer: Its value is 0.0 (0.0) %.

Question: What about the “% Megagametophytes Extruding” value [1, 6] of the same compound?
Answer: The value was 16.7 (8.8) %.

Question: And the “% Megagametophytes Initiating” value [1, 6]?
Answer: The value was 6.7 (6.7) %.

Question: What about the “% Megagametophytes Extruding” value ([1]; genotype 18-120, 50% Oxygen) of the same compound?
Answer: Its value is 40.0 (10.0) %.

Question: And the “% Megagametophytes Initiating” value ([1]; genotype 18-120, 50% Oxygen)?
Answer: Its value is 0.0 (0.0) %.

Question: And the “% Megagametophytes Extruding” value [1, 7]?
Answer: Its value is 30.8 (3.6) %.

Question: And the “% Megagametophytes Initiating” value [1, 7]?
Answer: Its value is 4.2 (4.2) %.

Question: What about the “% Megagametophytes Extruding” value ([1]; genotype 18-1212, 30% Oxygen) of the same compound?
Answer: The value was 60.3 (8.0) %.

Question: What about the “% Megagametophytes Initiating” value ([1]; genotype 18-1212, 30% Oxygen) of the same compound?
Answer: Its value is 10.4 (5.8) %.

Question: What about the “% Megagametophytes Extruding” value [1, 8] of the same compound?
Answer: The value was 88.4 (6.5) %.

Question: And the “% Megagametophytes Initiating” value [1, 8]?
Answer: Its value is 3.7 (3.7) %.

Question: What about the “% Megagametophytes Extruding” value ([1]; genotype 18-1212, 50% Oxygen) of the same compound?
Answer: The value was 56.0 (3.6) %.

Question: What about the “% Megagametophytes Initiating” value ([1]; genotype 18-1212, 50% Oxygen) of the same compound?
Answer: The value was 11.2 (0.7) %.

Question: And the “% Megagametophytes Extruding” value [1, 9]?
Answer: The value was 70.0 (15.3) %.

Question: And the “% Megagametophytes Initiating” value [1, 9]?
Answer: The value was 10.0 (5.8) %.

Question: For `O=[N+]([O-])[O-].[Ag+]` [silver nitrate], which embryogenic culture initiation (loblolly pine) is on record?
Answer: Its embryogenic culture initiation is “improved embryogenic culture initiation”.
